Test results: patent publication US10131652B2, “Pyrimidinyloxy benzene derivatives as herbicides” (E. I. DU PONT DE NEMOURS AND COMPANY, priority 2014, dated 2018)

How the values were obtained:
Format in all cases: in vivo
[1] = system: barnyardgrass (Echinochloa crus-galli); experiment: Test B pre-/postemergence plant response
Outline: (§1)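 Ratings reflect visual injury versus untreated controls, from 0 for no effect to 100 for complete control, assessed roughly 10 days after treatment. Formulation: non-phytotoxic solvent mix with surfactant; pre- and postemergence sprays on plants grown in loam soil and sand.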

[2] = system: corn (Zea mays); experiment: Test B pre-/postemergence plant response
Outline: as §1

[3] = system: giant foxtail (Setaria faberii); experiment: Test B pre-/postemergence plant response
Outline: as §1

[4] = system: large (Lg) crabgrass (Digitaria sanguinalis); experiment: Test B pre-/postemergence plant response
Outline: as §1

[5] = system: morningglory (Ipomoea spp.); experiment: Test B pre-/postemergence plant response
Outline: as §1

[6] = system: pigweed (Amaranthus retroflexus); experiment: Test B pre-/postemergence plant response
Outline: as §1

[7] = system: velvetleaf (Abutilon theophrasti); experiment: Test B pre-/postemergence plant response
Outline: as §1

[8] = system: wheat (Triticum aestivum); experiment: Test B pre-/postemergence plant response
Outline: as §1

[9] = system: barnyardgrass (Echinochloa crus-galli); experiment: Test C flooded paddy test plant response; conditions: Flood, 250 g ai/ha; scale of 0 to 100 where 0 is no effect and 100 is complete control; 13 to 15 days
Outline: (§2)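 2-leaf plants; flood 3 cm, cpd into paddy water; greenhouse 13–15 d; visual score vs untreated, 0 = no effect, 100 = complete control; dash = no result.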

[10] = system: ducksalad (Heteranthera limosa); experiment: Test C flooded paddy test plant response; conditions: Flood, 250 g ai/ha; scale of 0 to 100 where 0 is no effect and 100 is complete control; 13 to 15 days
Outline: as §2

[11] = system: rice (Oryza sativa); experiment: Test C flooded paddy test plant response; conditions: Flood, 250 g ai/ha; scale of 0 to 100 where 0 is no effect and 100 is complete control; 13 to 15 days
Outline: as §2

[12] = system: small-flower umbrella sedge (Cyperus difformis); experiment: Test C flooded paddy test plant response; conditions: Flood, 250 g ai/ha; scale of 0 to 100 where 0 is no effect and 100 is complete control; 13 to 15 days
Outline: as §2

[13] = 125 g ai/ha, postemergence, 0 to 100 scale, 0 no effect, 100 complete control
[14] = Postemergence, 500 g ai/ha, 0 to 100 scale (0 no effect, 100 complete control)
[15] = Preemergence, 125 g ai/ha, 0 to 100 scale where 0 is no effect and 100 is complete control
[16] = Preemergence, 500 g ai/ha, 0 to 100 scale (0 no effect, 100 complete control)
[17] = Preemergence, 500 g ai/ha, 0 to 100 scale where 0 is no effect and 100 is complete control
[18] = 500 g ai/ha, postemergence, 0 to 100 scale, 0 no effect, 100 complete control
[19] = Preemergence, 125 g ai/ha, 0 to 100 scale (0 no effect, 100 complete control)

FC(F)(F)c1cnc(Oc2ccccc2-c2cscn2)nc1 [Compound 14]
Plant response rating, Barnyardgrass [1, 13]: 0 | Plant response rating, Barnyardgrass [1, 14]: 0 | Plant response rating, Barnyardgrass [1, 15]: 0 | Plant response rating, Barnyardgrass [1, 16]: 0 | Plant response rating, Corn [2, 13]: 0 | Plant response rating, Corn [2, 14]: 30 | Plant response rating, Corn [2, 15]: 0 | Plant response rating, Corn [2, 16]: 0 | Plant response rating, Foxtail, Giant [3, 13]: 0 | Plant response rating, Foxtail, Giant [3, 14]: 10 | Plant response rating, Foxtail, Giant [3, 15]: 0 | Plant response rating, Foxtail, Giant [3, 16]: 30 | Plant response rating, Crabgrass, Large [4, 13]: 0 | Plant response rating, Crabgrass, Large [4, 14]: 10 | Plant response rating, Crabgrass, Large [4, 15]: 0 | Plant response rating, Crabgrass, Large [4, 16]: 20 | Plant response rating, Morningglory [5, 13]: 0 | Plant response rating, Morningglory [5, 14]: 0 | Plant response rating, Morningglory [5, 15]: 0 | Plant response rating, Morningglory [5, 16]: 0 | Plant response rating, Pigweed [6, 13]: 0 | Plant response rating, Pigweed [6, 14]: 50 | Plant response rating, Pigweed [6, 15]: 0 | Plant response rating, Pigweed [6, 16]: 100 | Plant response rating, Velvetleaf [7, 13]: 20 | Plant response rating, Velvetleaf [7, 14]: 30 | Plant response rating, Velvetleaf [7, 15]: 0 | Plant response rating, Velvetleaf [7, 16]: 20 | Plant response rating, Wheat [8, 13]: 0 | Plant response rating, Wheat [8, 14]: 0 | Plant response rating, Wheat [8, 15]: 0 | Plant response rating, Wheat [8, 16]: 0 | Barnyardgrass plant response rating [9]: 0 | Ducksalad plant response rating [10]: 40 | Rice plant response rating [11]: 0 | Sedge, Umbrella plant response rating [12]: 0

Cn1nc(C(F)(F)F)cc1-c1c(C#N)cccc1Oc1ncc(Cl)cn1 [Compound 136]
Plant response rating, Barnyardgrass [1, 14]: 90 | Plant response rating, Barnyardgrass [1, 17]: 100 | Plant response rating, Corn [2, 14]: 70 | Plant response rating, Corn [2, 17]: 40 | Plant response rating, Foxtail, Giant [3, 14]: 80 | Plant response rating, Foxtail, Giant [3, 17]: 100 | Plant response rating, Crabgrass, Large [4, 14]: 90 | Plant response rating, Crabgrass, Large [4, 17]: 100 | Plant response rating, Morningglory [5, 14]: 90 | Plant response rating, Morningglory [5, 17]: 90 | Plant response rating, Pigweed [6, 14]: 100 | Plant response rating, Pigweed [6, 17]: 100 | Plant response rating, Velvetleaf [7, 14]: 100 | Plant response rating, Velvetleaf [7, 17]: 100 | Plant response rating, Wheat [8, 14]: 40 | Plant response rating, Wheat [8, 17]: 30 | Barnyardgrass plant response rating [9]: 0 | Ducksalad plant response rating [10]: 40 | Rice plant response rating [11]: 0 | Sedge, Umbrella plant response rating [12]: 40

FC(F)(F)c1ccc(-c2ccccc2Oc2ncc(Cl)cn2)cc1 [Compound 43]
Plant response rating, Barnyardgrass [1, 13]: 0 | Plant response rating, Barnyardgrass [1, 14]: 20 | Plant response rating, Barnyardgrass [1, 15]: 0 | Plant response rating, Barnyardgrass [1, 17]: 20 | Plant response rating, Corn [2, 13]: 0 | Plant response rating, Corn [2, 14]: 10 | Plant response rating, Corn [2, 15]: 0 | Plant response rating, Corn [2, 17]: 0 | Plant response rating, Foxtail, Giant [3, 13]: 0 | Plant response rating, Foxtail, Giant [3, 14]: 20 | Plant response rating, Foxtail, Giant [3, 15]: 0 | Plant response rating, Foxtail, Giant [3, 17]: 70 | Plant response rating, Crabgrass, Large [4, 13]: 0 | Plant response rating, Crabgrass, Large [4, 14]: 20 | Plant response rating, Crabgrass, Large [4, 15]: 0 | Plant response rating, Crabgrass, Large [4, 17]: 30 | Plant response rating, Morningglory [5, 13]: 0 | Plant response rating, Morningglory [5, 14]: 20 | Plant response rating, Morningglory [5, 15]: 0 | Plant response rating, Morningglory [5, 17]: 10 | Plant response rating, Pigweed [6, 13]: 30 | Plant response rating, Pigweed [6, 14]: 70 | Plant response rating, Pigweed [6, 15]: 0 | Plant response rating, Pigweed [6, 17]: 0 | Plant response rating, Velvetleaf [7, 13]: 20 | Plant response rating, Velvetleaf [7, 14]: 70 | Plant response rating, Velvetleaf [7, 15]: 0 | Plant response rating, Velvetleaf [7, 17]: 10 | Plant response rating, Wheat [8, 13]: 0 | Plant response rating, Wheat [8, 14]: 0 | Plant response rating, Wheat [8, 15]: 0 | Plant response rating, Wheat [8, 17]: 0 | Barnyardgrass plant response rating [9]: 0 | Ducksalad plant response rating [10]: 0 | Rice plant response rating [11]: 0 | Sedge, Umbrella plant response rating [12]: 0

N#Cc1cccc(Oc2ncc(Br)cn2)c1-c1ccc(Cl)cn1 [Compound 204]
Plant response rating, Barnyardgrass [1, 13]: 0 | Plant response rating, Barnyardgrass [1, 18]: 10 | Barnyardgrass plant response rating [1, 19]: 0 | Plant response rating, Barnyardgrass [1, 17]: 30 | Plant response rating, Corn [2, 13]: 0 | Plant response rating, Corn [2, 18]: 0 | Corn plant response rating [2, 19]: 0 | Plant response rating, Corn [2, 17]: 0 | Plant response rating, Foxtail, Giant [3, 13]: 0 | Plant response rating, Foxtail, Giant [3, 18]: 30 | Foxtail, Giant plant response rating [3, 19]: 60 | Plant response rating, Foxtail, Giant [3, 17]: 100 | Plant response rating, Crabgrass, Large [4, 13]: 10 | Plant response rating, Crabgrass, Large [4, 18]: 40 | Crabgrass, Large plant response rating [4, 19]: 90 | Plant response rating, Crabgrass, Large [4, 17]: 100 | Plant response rating, Morningglory [5, 13]: 0 | Plant response rating, Morningglory [5, 18]: 10 | Morningglory plant response rating [5, 19]: 0 | Plant response rating, Morningglory [5, 17]: 10 | Plant response rating, Pigweed [6, 13]: 50 | Plant response rating, Pigweed [6, 18]: 90 | Pigweed plant response rating [6, 19]: 100 | Plant response rating, Pigweed [6, 17]: 100 | Plant response rating, Velvetleaf [7, 13]: 0 | Plant response rating, Velvetleaf [7, 18]: 10 | Velvetleaf plant response rating [7, 19]: 0 | Plant response rating, Velvetleaf [7, 17]: 60 | Plant response rating, Wheat [8, 13]: 0 | Plant response rating, Wheat [8, 18]: 0 | Wheat plant response rating [8, 19]: 0 | Plant response rating, Wheat [8, 17]: 0 | Barnyardgrass plant response rating [9]: 0 | Ducksalad plant response rating [10]: 0 | Rice plant response rating [11]: 0 | Sedge, Umbrella plant response rating [12]: 0
